Experiments:
[1] = biological target: T1, Gastrin/cholecystokinin type B receptor (Homo sapiens, UniProt P32239)
T1 sequence (P32239 whole entry): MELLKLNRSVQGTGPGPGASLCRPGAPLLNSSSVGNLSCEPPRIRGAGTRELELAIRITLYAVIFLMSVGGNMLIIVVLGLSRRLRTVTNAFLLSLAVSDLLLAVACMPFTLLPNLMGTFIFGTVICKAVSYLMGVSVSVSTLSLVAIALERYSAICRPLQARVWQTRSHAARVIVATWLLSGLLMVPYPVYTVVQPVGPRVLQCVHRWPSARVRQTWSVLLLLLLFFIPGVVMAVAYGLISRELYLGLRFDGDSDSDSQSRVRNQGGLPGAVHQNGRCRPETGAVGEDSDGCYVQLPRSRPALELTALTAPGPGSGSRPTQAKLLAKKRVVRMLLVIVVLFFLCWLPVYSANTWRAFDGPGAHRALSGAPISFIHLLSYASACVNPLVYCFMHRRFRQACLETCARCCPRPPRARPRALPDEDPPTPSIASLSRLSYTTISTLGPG

[2] = biological target: T2, Sodium-dependent serotonin transporter (Homo sapiens, UniProt P31645)
[3] = biological target: T3, Muscarinic acetylcholine receptor M2 (Homo sapiens, UniProt P08172)
T3 sequence (P08172 whole entry): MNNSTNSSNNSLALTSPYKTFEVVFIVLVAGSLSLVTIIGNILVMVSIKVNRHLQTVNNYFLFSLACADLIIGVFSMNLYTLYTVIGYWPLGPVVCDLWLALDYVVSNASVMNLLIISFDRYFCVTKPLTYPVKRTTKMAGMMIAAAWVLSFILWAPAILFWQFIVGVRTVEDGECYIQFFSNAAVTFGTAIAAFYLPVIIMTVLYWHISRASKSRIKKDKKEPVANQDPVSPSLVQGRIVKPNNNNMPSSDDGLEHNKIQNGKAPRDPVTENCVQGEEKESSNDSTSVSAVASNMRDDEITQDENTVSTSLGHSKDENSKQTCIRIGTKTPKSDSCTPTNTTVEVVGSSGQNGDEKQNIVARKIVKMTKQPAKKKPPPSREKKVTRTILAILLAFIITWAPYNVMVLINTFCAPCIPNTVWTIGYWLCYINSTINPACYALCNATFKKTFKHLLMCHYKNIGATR

[4] = biological target: T4, Estrogen receptor (Homo sapiens, UniProt P03372)
T4 sequence (P03372 whole entry): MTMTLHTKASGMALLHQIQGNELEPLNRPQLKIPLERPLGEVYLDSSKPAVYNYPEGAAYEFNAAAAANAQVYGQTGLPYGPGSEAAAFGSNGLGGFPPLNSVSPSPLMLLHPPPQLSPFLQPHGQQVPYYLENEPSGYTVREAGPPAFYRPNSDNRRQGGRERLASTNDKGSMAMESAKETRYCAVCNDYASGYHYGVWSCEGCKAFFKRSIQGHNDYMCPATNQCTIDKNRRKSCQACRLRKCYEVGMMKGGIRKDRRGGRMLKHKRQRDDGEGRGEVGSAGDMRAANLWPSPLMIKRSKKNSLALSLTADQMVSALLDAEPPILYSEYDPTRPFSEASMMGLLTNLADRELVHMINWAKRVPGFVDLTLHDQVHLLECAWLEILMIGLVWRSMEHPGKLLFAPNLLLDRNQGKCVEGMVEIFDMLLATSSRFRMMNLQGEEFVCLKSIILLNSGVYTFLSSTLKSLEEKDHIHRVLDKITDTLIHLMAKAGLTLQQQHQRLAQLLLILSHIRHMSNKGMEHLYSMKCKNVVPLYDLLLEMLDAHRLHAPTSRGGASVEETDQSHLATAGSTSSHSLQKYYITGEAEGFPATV

[5] = biological target: T2, Sodium-dependent serotonin transporter; remark: listed apart in the source
[6] = biological target: 5-hydroxytryptamine receptor 2B (Homo sapiens, UniProt P41595); format: functional, cell-based
[7] = biological target: T5, B2 bradykinin receptor (Homo sapiens, UniProt P30411)
T5 sequence (P30411 whole entry): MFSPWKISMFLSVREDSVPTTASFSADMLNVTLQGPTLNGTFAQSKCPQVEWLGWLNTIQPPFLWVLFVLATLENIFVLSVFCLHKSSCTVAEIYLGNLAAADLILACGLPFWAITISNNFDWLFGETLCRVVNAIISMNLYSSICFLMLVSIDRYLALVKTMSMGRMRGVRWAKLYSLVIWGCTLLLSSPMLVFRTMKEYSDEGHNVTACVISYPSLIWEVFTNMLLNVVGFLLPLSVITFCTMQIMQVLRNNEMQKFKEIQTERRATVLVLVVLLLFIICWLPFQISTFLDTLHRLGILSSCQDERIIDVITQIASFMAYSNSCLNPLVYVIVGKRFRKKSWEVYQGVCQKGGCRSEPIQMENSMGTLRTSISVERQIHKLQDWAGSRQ

[8] = biological target: 5-hydroxytryptamine receptor 2A (Homo sapiens, UniProt P28223); format: functional, cell-based
[9] = biological target: T6, Alpha-1A adrenergic receptor (Homo sapiens, UniProt P35348); format: functional, cell-based
T6 sequence (P35348 whole entry): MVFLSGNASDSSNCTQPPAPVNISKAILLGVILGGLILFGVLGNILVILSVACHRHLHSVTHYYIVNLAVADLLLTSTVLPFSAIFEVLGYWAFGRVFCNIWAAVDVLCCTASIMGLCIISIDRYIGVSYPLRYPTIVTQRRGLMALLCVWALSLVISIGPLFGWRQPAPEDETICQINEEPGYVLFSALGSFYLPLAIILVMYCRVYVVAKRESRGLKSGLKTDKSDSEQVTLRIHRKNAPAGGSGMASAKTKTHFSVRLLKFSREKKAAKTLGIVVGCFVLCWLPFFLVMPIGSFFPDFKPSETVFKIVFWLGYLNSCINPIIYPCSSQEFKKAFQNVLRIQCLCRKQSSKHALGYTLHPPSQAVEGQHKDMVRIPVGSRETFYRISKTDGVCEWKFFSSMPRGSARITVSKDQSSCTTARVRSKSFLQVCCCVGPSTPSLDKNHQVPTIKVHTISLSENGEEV
Further: assay procedure not described here.

5-hydroxytryptamine receptor 2A, sequence (P28223 whole entry): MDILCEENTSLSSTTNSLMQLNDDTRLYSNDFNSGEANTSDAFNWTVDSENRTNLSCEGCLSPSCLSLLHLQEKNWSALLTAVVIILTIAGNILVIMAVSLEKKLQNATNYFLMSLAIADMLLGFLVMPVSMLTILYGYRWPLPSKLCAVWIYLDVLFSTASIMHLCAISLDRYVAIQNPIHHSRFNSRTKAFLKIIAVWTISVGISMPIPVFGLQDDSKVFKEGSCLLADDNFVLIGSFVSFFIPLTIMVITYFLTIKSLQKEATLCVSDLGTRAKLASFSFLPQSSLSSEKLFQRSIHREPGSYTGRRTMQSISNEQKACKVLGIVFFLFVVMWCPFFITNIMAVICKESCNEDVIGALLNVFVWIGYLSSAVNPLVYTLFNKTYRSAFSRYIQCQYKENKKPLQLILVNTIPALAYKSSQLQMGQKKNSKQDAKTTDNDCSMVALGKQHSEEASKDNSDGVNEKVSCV
T2 sequence (P31645 whole entry): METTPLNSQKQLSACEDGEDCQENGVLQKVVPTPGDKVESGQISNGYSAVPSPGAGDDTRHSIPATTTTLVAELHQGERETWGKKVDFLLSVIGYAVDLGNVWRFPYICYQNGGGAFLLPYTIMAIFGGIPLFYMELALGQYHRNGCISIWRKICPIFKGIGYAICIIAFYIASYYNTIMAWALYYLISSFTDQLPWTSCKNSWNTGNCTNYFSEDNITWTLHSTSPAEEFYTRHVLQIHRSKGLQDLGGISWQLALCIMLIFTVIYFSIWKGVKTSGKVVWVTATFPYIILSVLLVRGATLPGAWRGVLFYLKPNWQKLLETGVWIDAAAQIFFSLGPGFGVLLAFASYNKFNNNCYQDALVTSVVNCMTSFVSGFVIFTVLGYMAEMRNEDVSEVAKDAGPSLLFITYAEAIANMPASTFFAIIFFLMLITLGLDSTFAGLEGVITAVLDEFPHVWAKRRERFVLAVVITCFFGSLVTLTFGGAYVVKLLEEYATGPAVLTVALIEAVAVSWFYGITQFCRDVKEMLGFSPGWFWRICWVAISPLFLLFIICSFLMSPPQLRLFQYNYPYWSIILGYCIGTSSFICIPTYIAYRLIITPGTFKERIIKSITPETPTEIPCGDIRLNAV
5-hydroxytryptamine receptor 2B, sequence (P41595 whole entry): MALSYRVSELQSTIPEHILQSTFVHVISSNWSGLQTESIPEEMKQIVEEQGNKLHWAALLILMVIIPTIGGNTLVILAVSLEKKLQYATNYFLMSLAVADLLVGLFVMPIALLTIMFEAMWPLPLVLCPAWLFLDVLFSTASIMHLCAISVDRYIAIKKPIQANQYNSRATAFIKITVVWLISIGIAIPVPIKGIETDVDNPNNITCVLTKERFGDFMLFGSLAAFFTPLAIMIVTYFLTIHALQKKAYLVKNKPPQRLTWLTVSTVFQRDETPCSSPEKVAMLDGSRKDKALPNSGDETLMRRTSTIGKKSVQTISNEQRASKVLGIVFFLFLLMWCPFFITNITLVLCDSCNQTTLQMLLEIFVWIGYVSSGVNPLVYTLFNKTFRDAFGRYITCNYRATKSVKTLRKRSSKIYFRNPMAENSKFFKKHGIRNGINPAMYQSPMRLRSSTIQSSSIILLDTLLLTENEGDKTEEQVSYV

| Structure (SMILES) | AC50 [1] | AC50 [2] | AC50 [3] | AC50 [4] | AC50 [5] | AC50 [6] | AC50 [7] | AC50 [8] | AC50 [9] |
| --- | --- | --- | --- | --- | --- | --- | --- | --- | --- |
| COc1cc(Nc2c(C#N)cnc3cc(OCCCN4CCN(C)CC4)c(OC)cc23)c(Cl)cc1Cl [BOSUTINIB] | > 30 µM | 11 µM | 4.94 µM | > 30 µM | 3.21 µM | > 30 µM | > 30 µM |  |  |
| CN(CCOc1ccc(NS(C)(=O)=O)cc1)CCc1ccc(NS(C)(=O)=O)cc1 [DOFETILIDE] | > 30 µM | > 10 µM | 6.73 µM | > 30 µM | > 30 µM | > 30 µM | > 30 µM | > 30 µM | > 30 µM |
| COc1cc2c(cc1OC)C(=O)C(CC1CCN(Cc3ccccc3)CC1)C2 (stereo not given) [DONEPEZIL] | > 30 µM | > 30 µM |  | > 30 µM | > 30 µM |  | > 30 µM | > 30 µM |  |
| OCCN1CCN(CCCN2c3ccccc3C=Cc3ccccc32)CC1 [OPIPRAMOL] | > 30 µM | > 30 µM | 9.58 µM | > 30 µM | 11.7 µM | > 30 µM | > 30 µM | > 30 µM | > 30 µM |
| CC(N/C(=N\C#N)Nc1ccncc1)C(C)(C)C (stereo not given) [PINACIDIL ANHYDROUS] |  |  | > 30 µM |  | > 30 µM | > 30 µM |  |  | > 30 µM |
| CC(C(=O)O)c1ccc(N2CC=CC2)c(Cl)c1 (stereo not given) [PIRPROFEN] | > 30 µM | > 10 µM | > 30 µM | > 30 µM | > 30 µM | > 30 µM | > 30 µM | > 30 µM | > 30 µM |
| CN(C)C(=O)Oc1ccc[n+](C)c1 [PYRIDOSTIGMINE] |  |  | > 30 µM |  | > 30 µM | > 30 µM |  |  | > 30 µM |
| O=C(NC[C@H]1CN(c2ccc(N3CCOCC3=O)cc2)C(=O)O1)c1ccc(Cl)s1 [RIVAROXABAN] |  | > 30 µM | > 30 µM |  | > 30 µM | > 30 µM |  | > 30 µM | > 30 µM |
| CC(C)OC(=O)[C@H](C)N[P@](=O)(OC[C@H]1O[C@@H](n2ccc(=O)[nH]c2=O)[C@](C)(F)[C@@H]1O)Oc1ccccc1 [SOFOSBUVIR] |  |  | > 30 µM |  | > 30 µM | > 30 µM |  |  | > 30 µM |
| Cc1ccc(O)c2ncccc12 [TILIQUINOL] |  |  | > 30 µM |  | > 30 µM | > 30 µM |  |  | > 30 µM |
| CC(=O)OC[C@H]1O[C@@H](n2ccc(=O)[nH]c2=O)[C@H](OC(C)=O)[C@@H]1OC(C)=O [URIDINE TRIACETATE] |  |  | > 30 µM |  | > 30 µM | > 30 µM |  |  | > 30 µM |
| CCOC(=O)N[C@@H]1CC[C@@H]2[C@@H](C1)C[C@H]1C(=O)O[C@H](C)[C@H]1[C@H]2/C=C/c1ccc(-c2cccc(F)c2)cn1 [VORAPAXAR] |  |  | > 30 µM |  | > 10 µM | > 30 µM |  |  | > 30 µM |

Reference: ChEMBL document CHEMBL5291721, “A preclinical secondary pharmacology resource illuminates target-adverse drug reaction associations of marketed drugs” (Nat Commun, 2023)
